Experimental data reported in US7355042B2, “Treatment of CNS disorders using CNS target modulators” (Hypnion, Inc., priority 2001, dated 2008).
Where a name gives a salt, the structure may show the parent alone. Marks after values point to notes of the source that are not given here.

Key:
[1] = molecular target: T1, human recombinant M1 muscarinic receptor expressed in CHO cells (Homo sapiens, UniProt P11229); settings: read-out: Ki of reference compounds, M1 binding assay; cited from earlier work
T1 construct: expressed in transfected cells; host or cells: CHO cells
T1 sequence (P11229 1-460): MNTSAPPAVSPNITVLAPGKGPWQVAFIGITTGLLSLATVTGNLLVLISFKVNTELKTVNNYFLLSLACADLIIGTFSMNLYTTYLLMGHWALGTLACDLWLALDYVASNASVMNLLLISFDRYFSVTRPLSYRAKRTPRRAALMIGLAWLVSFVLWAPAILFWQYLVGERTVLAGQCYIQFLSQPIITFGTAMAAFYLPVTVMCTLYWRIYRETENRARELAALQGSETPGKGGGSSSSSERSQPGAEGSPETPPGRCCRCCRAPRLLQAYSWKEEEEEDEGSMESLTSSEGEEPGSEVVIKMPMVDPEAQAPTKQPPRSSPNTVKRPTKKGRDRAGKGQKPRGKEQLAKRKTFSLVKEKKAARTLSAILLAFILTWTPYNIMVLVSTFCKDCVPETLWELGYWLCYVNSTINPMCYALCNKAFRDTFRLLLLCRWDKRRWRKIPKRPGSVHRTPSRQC

[2] = system: M3 receptor from guinea pig ileum membranes; settings: read-out: Ki of reference compounds, M3 binding assay; cited from earlier work
[3] = molecular target: T2, M2 receptor from rat cardiac membranes (Rattus norvegicus, UniProt P10980); settings: read-out: Ki of reference compounds, M2 binding assay; cited from earlier work
T2 construct: the M2 receptor was from rat cardiac membranes; from tissue; host or cells: rat cardiac membranes
T2 sequence (P10980 1-466): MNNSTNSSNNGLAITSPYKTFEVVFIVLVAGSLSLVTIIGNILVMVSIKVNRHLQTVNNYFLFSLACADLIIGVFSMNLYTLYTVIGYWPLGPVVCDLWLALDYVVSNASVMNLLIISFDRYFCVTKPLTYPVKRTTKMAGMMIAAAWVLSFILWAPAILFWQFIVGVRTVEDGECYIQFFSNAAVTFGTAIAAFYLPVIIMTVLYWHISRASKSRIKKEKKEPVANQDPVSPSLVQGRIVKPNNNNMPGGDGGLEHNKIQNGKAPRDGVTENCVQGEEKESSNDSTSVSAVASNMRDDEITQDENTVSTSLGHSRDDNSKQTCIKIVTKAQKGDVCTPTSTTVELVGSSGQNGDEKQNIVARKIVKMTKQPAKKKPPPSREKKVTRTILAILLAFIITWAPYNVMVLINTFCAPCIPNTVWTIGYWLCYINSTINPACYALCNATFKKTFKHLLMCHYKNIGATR

[4] = molecular target: Norepinephrine Transporter (Homo sapiens, UniProt P23975); assay: Receptor selectivity binding comparison: Norepinephrine Transporter; settings: 1.0E−6
male Wistar rats = assay: Sleep-wakefulness, locomotor activity and body temperature monitoring (SCORE-2000); format: in vivo, rat; settings: 30 mg/kg PO at CT-18
[5] = molecular target: cloned hERG channels expressed in HEK293 cells (Homo sapiens, UniProt Q12809); assay: hERG block comparative study, whole cell recording; settings: table title 1.0E−6
[6] = molecular target: T1, human recombinant M1 muscarinic receptor expressed in CHO cells; assay: M1 binding assay (human recombinant), [3H]-scopolamine N-methyl chloride; settings: 1.0E−6
Histamine, H2 = Histamine, H2 (Homo sapiens, UniProt P25021); assay: Receptor selectivity binding comparison: Histamine H2; settings: 1.0E−6
[7] = molecular target: T3, human recombinant M2 muscarinic receptor expressed in CHO cells (Homo sapiens, UniProt P08172); assay: M2 binding assay (human recombinant); settings: 1.0E−6
T3 construct: expressed in transfected cells; host or cells: CHO cells
T3 sequence (P08172 1-466): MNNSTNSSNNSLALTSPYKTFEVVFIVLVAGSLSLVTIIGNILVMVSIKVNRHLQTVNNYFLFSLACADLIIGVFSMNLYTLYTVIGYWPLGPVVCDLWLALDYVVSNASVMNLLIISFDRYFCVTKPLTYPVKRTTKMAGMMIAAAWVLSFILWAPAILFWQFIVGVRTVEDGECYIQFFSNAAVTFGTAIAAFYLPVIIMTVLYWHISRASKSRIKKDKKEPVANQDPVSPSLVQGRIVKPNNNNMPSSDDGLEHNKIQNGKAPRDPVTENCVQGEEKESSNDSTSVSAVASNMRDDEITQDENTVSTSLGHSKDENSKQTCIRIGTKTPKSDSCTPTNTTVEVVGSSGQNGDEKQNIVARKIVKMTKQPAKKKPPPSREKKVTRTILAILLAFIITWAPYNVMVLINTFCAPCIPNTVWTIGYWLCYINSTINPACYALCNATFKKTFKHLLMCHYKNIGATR

Histamine, H2, sequence (P25021 whole entry): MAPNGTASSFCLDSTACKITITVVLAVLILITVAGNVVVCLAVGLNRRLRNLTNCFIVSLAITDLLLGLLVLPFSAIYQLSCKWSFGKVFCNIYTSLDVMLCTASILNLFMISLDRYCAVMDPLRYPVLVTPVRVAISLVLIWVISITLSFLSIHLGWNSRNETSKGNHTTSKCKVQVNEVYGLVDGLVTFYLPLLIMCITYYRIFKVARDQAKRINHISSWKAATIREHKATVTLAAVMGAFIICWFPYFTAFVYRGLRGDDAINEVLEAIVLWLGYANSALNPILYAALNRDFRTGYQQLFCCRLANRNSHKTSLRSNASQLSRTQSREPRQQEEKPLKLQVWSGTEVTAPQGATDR
cloned hERG channels expressed in HEK293 cells, sequence (Q12809 whole entry): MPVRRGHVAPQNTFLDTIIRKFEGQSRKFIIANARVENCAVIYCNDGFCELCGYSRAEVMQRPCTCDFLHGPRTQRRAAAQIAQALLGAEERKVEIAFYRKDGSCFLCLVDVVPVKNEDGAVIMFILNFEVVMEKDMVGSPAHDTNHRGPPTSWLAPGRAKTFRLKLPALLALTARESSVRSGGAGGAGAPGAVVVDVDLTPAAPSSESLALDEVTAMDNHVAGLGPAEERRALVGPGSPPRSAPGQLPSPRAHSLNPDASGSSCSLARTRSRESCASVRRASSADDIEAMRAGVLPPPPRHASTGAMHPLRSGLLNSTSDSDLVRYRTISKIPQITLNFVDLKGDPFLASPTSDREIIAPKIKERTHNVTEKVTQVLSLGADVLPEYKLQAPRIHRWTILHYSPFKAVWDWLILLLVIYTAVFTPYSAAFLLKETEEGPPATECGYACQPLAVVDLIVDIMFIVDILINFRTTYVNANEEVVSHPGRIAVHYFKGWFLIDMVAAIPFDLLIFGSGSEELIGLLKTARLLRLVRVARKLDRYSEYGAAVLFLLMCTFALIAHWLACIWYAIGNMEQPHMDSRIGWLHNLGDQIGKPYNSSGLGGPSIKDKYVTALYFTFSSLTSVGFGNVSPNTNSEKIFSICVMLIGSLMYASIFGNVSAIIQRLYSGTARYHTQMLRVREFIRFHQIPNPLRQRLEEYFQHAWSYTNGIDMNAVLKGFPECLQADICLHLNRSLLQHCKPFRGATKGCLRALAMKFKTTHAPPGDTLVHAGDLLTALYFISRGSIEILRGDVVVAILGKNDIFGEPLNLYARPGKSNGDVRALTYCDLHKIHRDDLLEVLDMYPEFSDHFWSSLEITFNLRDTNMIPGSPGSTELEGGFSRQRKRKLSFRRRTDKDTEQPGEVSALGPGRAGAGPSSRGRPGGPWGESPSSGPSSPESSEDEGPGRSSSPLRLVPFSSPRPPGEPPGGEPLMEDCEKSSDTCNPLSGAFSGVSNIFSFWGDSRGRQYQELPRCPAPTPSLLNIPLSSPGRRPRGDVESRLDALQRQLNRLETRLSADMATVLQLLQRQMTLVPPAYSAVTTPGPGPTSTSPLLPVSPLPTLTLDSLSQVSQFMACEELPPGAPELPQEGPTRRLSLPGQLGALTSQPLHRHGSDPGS
Norepinephrine Transporter, sequence (P23975 whole entry, species assumed): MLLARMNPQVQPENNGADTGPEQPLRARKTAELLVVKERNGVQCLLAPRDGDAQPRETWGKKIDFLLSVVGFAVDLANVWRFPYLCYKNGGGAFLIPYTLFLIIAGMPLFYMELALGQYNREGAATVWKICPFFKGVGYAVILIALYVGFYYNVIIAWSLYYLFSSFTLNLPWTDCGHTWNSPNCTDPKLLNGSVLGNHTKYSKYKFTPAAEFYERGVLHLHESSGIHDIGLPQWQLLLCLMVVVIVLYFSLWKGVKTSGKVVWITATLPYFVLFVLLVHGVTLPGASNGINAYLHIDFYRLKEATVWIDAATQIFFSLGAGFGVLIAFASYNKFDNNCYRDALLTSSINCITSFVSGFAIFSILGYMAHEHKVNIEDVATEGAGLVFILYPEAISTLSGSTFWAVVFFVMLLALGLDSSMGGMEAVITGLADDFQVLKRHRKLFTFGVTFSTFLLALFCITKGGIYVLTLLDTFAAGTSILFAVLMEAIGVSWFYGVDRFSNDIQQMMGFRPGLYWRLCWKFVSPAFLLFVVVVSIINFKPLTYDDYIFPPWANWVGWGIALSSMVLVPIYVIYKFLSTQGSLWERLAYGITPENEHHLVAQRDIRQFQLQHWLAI

Structure (SMILES): C[N+]1(C)CCC(OC(=O)C(c2ccccc2)c2ccccc2)CC1 [4-DAMP methiodide]
- Ki [1]: 0.27 nM
- Ki [2]: 37.5 nM

Structure (SMILES): CCN(CC)CC1CCCCN1CC(=O)N1c2ccccc2C(=O)Nc2cccnc21 (stereo not drawn) [AF-DX 116]
- Ki [3]: 63 nM

Structure (SMILES): O=C(O)CCN1CCC(=C2c3ccccc3COc3ccccc32)CC1 [Compound 8a]
- Percent Inhibition, Norepinephrine Transporter [4]: −3.9%
- Average Bout-Length (male Wistar rats): 12.2 min
- Maximum Bout Length (male Wistar rats): 28.9 min
- NREM Accum. (male Wistar rats): 65.8 min
- NREM Peak (%/hr) (male Wistar rats): 75.5 %/hr
- Onset (male Wistar rats): 65 min
- Percent Inhibition, HERG [5]: 4%
- Percent Inhibition, Muscarinic, M1 (Human Recombinant) [6]: 3.3%
- Percent Inhibition, Histamine, H2 (Histamine, H2): 33.4%

Structure (SMILES): CN(C)CCC=C1c2ccccc2COc2ccccc21 [Doxepin, doxepin HCl, reference compound]
- Percent Inhibition, Muscarinic, M2 (Human Recombinant) [7]: 74.0%
- Percent Inhibition, HERG [5]: 23%**
- Percent Inhibition, Histamine, H2 (Histamine, H2): 74.7%
